For 9 compounds, IC50 results are on record in BindingDB's records for patent US20250382298 (Suzhou Genhouse Bio Co., 2025).

Molecules are shown by their SMILES.

This assay addresses T1, Kinesin-like protein KIF18A (Homo sapiens, UniProt Q8NI77).
T1 sequence (Q8NI77 whole entry): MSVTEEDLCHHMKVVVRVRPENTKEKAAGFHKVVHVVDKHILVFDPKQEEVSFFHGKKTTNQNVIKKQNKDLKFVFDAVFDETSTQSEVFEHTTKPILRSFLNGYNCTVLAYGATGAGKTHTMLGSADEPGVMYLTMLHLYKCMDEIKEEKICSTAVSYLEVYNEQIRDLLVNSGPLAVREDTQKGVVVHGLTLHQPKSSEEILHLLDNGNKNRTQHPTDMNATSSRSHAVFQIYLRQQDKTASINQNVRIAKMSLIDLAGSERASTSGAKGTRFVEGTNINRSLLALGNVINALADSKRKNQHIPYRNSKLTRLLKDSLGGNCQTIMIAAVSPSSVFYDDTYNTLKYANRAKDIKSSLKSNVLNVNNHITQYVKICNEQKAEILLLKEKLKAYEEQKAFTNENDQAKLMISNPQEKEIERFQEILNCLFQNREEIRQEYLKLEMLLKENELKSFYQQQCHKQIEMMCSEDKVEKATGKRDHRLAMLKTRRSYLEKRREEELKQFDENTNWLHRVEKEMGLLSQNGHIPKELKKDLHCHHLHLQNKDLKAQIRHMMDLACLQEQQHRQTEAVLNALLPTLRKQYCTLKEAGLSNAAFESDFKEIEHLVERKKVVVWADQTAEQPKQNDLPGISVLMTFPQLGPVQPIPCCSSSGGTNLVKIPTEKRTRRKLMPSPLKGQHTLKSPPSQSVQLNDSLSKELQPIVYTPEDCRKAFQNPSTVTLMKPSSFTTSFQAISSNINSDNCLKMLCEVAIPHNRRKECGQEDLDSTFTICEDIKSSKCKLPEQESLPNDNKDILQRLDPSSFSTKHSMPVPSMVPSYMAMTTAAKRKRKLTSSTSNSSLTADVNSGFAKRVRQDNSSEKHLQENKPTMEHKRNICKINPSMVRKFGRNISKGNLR
The experiment in a line: Inhibitory Activity Assay. The method, then:
In this experiment, an ADP-Glo kit was used to detect the inhibitory activity of the compounds against KIF18A. Each compound was prepared into a 10 mM stock solution with DMSO, which was then diluted at 1:5 to obtain 9 gradients with the initial final concentration set at 10 μM. Meanwhile, a control group and a blank group were also set up. The reaction buffer consisted of 15 mM Tris (pH 7.5), 10 mM MgCl2, and 0.01% Pluronic F-68. […] Finally, the ADP-Glo reagent was added to detect the luminescence intensity, where the luminescence intensity is directly proportional to the ADP content. Inhibition rate (%)=(1−Sample signal)/DMSO signal×100. Sample signal is the value of the compound group, and DMSO signal is the value of the DMSO control group. Then, the inhibition rate at each concentration was calculated, and the IC50 was determined by fitting using the GraphPadPrism 7.0 software.
By IC50 is commonly meant the point on the concentration scale where inhibition reaches its midpoint. Regarding `CS(=O)(=O)Nc1ccc(C(=O)Nc2cn3ccnc3c(N3CCC(F)(F)CC3)n2)c(N2CC3CCC(C3)C2)c1` [US20250382298, Compound 19], the IC50 was 26.8 nM.
`O=C(Nc1cc2cccnc2c(N2CCC(F)(F)CC2)n1)c1ccc(NS(=O)(=O)CCO)cc1N1CCC2(CC1)CC2` [US20250382298, Compound 21] returned an IC50 of 10.7 nM.
Turning to `O=C(Nc1cn2ccnc2c(N2CCC3(CC2)CC3)n1)c1ccc(NS(=O)(=O)CCO)cc1N1CCC2(CC1)CC2` [US20250382298, Compound 31], the IC50 was determined as 55.3 nM.
`CS(=O)(=O)Nc1ccc(C(=O)Nc2cc3cccnc3c(N3CCC(F)(F)CC3)n2)c(N2CCC3(CC2)CC3)c1` [US20250382298, Compound 32]: the IC50 was found to be 117 nM.
As for `CS(=O)(=O)Nc1ccc(C(=O)Nc2cc3cccnc3c(N3CCC(F)(F)CC3)n2)c(N2CC3CCC(C3)C2)c1` [US20250382298, Compound 33], the IC50 amounted to 111 nM.
`O=C(Nc1cn2c(F)cnc2c(N2CCC(F)(F)CC2)n1)c1ccc(NS(=O)(=O)CCO)cc1N1CCC2(CC1)CC2` [US20250382298, Compound 34] returned a concentration for half-maximal inhibition (IC50) of 44.3 nM.
In turn, `O=C(Nc1cc2nccnc2c(N2CCC(F)(F)CC2)n1)c1ccc(NS(=O)(=O)CCO)cc1N1CCC2(CC1)CC2` [US20250382298, Compound 39] registered an IC50 of 32.2 nM.
`O=C(Nc1cn2c(F)cnc2c(N2CCC(F)(F)CC2)n1)c1ccc(NS(=O)(=O)CCO)cc1N1CC2CCC(C2)C1` [US20250382298, Compound 51] showed an IC50 of 10 nM.
`CS(=O)(=O)Nc1ccc(C(=O)Nc2cc3nccnc3c(N3CCC(F)(F)CC3)n2)c(N2CC3CCC(C3)C2)c1` [US20250382298, Compound 72] gave an IC50 of 134 nM.
